From patent US11434242B2, “Dopamine-b-hydroxylase inhibitors” (BIAL-PORTELA & Cª, S.A., priority 2017, dated 2022)

Target: T1, Dopamine beta hydroxylase (Homo sapiens, UniProt P09172)
T1 construct: 125 μl of plasma; tissue Instituto Português do Sangue Transplantação; host or cells: human plasma from healthy donors
T1 sequence (P09172 40-617 limits assumed): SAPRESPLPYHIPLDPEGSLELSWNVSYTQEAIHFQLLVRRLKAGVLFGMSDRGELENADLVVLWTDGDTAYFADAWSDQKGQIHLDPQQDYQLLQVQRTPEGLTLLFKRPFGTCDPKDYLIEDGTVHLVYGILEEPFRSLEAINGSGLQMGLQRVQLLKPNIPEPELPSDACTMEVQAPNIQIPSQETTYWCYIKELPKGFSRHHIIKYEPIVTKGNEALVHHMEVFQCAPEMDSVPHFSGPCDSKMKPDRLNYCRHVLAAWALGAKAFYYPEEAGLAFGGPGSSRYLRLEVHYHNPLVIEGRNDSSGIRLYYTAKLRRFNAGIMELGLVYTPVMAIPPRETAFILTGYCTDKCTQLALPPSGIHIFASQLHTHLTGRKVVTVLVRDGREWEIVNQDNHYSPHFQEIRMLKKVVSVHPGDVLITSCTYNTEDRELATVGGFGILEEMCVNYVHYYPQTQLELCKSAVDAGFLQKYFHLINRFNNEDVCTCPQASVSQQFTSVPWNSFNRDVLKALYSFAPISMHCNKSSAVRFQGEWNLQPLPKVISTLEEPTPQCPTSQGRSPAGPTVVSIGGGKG
Assay: Dopamine beta hydroxylase activity in human plasma
Format: biochemical
Details: for Plasma (0.01 μM), activity in % of control: inhibitor 0.01 μM; for Plasma (0.1 μM), activity in % of control: inhibitor 0.1 μM; for Plasma (1 μM), activity in % of control: inhibitor 1 μM
Procedure, shortened: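 Healthy-donor human plasma pre-incubated 10 min at 37° C with compound at final 10, 100 or 1000 nM in pH 5.0 acetate buffer with ascorbate, fumarate, pargyline, N-ethylmaleimide, catalase and copper sulfate. Tyramine substrate then added for 45 min; octopamine formed was isolated by SCX cartridge, periodate-converted and read at 330 nm; activity given as % control.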

| SMILES | Plasma (0.01 μM), activity in % of control | Plasma (0.1 μM), activity in % of control | Plasma (1 μM), activity in % of control |
| --- | --- | --- | --- |
| O=C(Cc1[nH]c(=S)n2c1[C@@H]1C[C@]1(c1cc(Cl)ccc1F)C2)N1CCCCC1 [Example 158, 2-((5aS,6aR)-5a-(5-chloro-2-fluorophenyl)-3-thioxo-2,3,5,5a,6,6a-hexahydrocyclopropa[3,4]pyrrolo[1,2-c]imidazol-1-yl)-1-(piperidin-1-yl)ethan-1-one] | 90.9 % of control | 52.1 % of control | – |
| O=C(Cc1[nH]c(=S)n2c1[C@@H]1C[C@]1(c1c(F)ccc(Cl)c1F)C2)NCCn1cccn1 [Example 142, N-(2-(1H-pyrazol-1-yl)ethyl)-2-((5aS,6aR)-5a-(3-chloro-2,6-difluorophenyl)-3-thioxo-2,3,5,5a,6,6a-hexahydrocyclopropa[3,4]pyrrolo[1,2-c]imidazol-1-yl)acetamide] | 60.0 % of control | 16.2 % of control | – |
| O=C(Cc1[nH]c(=S)n2c1C[C@H](c1c(F)ccc(Br)c1F)C2)N[C@@H]1CCCC[C@H]1O [Example 160, 2-((R)-6-(3-bromo-2,6-difluorophenyl)-3-thioxo-2,5,6,7-tetrahydro-3H-pyrrolo[1,2-c]imidazol-1-yl)-N-((1R,2R)-2-hydroxycyclohexyl)acetamide] | 84.7 % of control | 50.8 % of control | – |
| CN1CCN(C(=O)Cc2c3n(c(=S)n2C)C[C@@H](c2c(F)c(F)cc(F)c2F)C3)CC1=O [Example 324, (R)-1-methyl-4-(2-(2-methyl-6-(2,3,5,6-tetrafluorophenyl)-3-thioxo-2,5,6,7-tetrahydro-3H-pyrrolo[1,2-c]imidazol-1-yl)acetyl)piperazin-2-one] | 88.6 % of control | 53.1 % of control | – |
| COCCNC(=O)Cc1[nH]c(=S)n2c1C[C@@H](c1c(F)ccc(Br)c1F)C2 [Example 103, (S)-2-(6-(3-bromo-2,6-difluorophenyl)-3-thioxo-2,5,6,7-tetrahydro-3H-pyrrolo[1,2-c]imidazol-1-yl)-N-(2-methoxyethyl)acetamide] | – | 21.6 % of control | 1.8 % of control |
| Cn1c(CC(=O)N[C@@H]2CCOC2)c2n(c1=S)C[C@@H](c1c(F)cccc1F)C2 [Example 446, 2-((R)-6-(2,6-difluorophenyl)-2-methyl-3-thioxo-2,5,6,7-tetrahydro-3H-pyrrolo[1,2-c]imidazol-1-yl)-N—((R)-tetrahydrofuran-3-yl)acetamide] | 83.0 % of control | 62.9 % of control | – |
| CS(=O)(=O)C1CCN(C(=O)Cc2[nH]c(=S)n3c2C[C@@H](c2c(F)ccc(Br)c2F)C3)C1 (stereo partly drawn) [Example 164, 2-((S)-6-(3-bromo-2,6-difluorophenyl)-3-thioxo-2,5,6,7-tetrahydro-3H-pyrrolo[1,2-c]imidazol-1-yl)-1-(3-(methylsulfonyl)pyrrolidin-1-yl)ethan-1-one] | 65.8 % of control | 17.1 % of control | – |
| Cn1c(CC(=O)O)c2n(c1=S)C[C@@H](c1c(F)c(F)cc(F)c1F)C2 [Example 229, (R)-2-(2-methyl-6-(2,3,5,6-tetrafluorophenyl)-3-thioxo-3,5,6,7-tetrahydro-2H-pyrrolo[1,2-c]imidazol-1-yl)acetic Acid] | 84.3 % of control | 38.3 % of control | – |
| O=C(Cc1[nH]c(=S)n2c1C[C@H](c1c(F)ccc(Br)c1F)C2)N1CCOCC1 [Example 141, (R)-2-(6-(3-bromo-2,6-difluorophenyl)-3-thioxo-2,5,6,7-tetrahydro-3H-pyrrolo[1,2-c]imidazol-1-yl)-1-morpholinoethan-1-one] | 93.2 % of control | 76.1 % of control | – |
| Cl.O=C(Cc1[nH]c(=S)n2c1C[C@@H](c1c(F)ccc(Cl)c1F)C2)NCCc1ccccn1 [Example 106, (S)-2-(6-(3-chloro-2,6-difluorophenyl)-3-thioxo-2,5,6,7-tetrahydro-3H-pyrrolo[1,2-c]imidazol-1-yl)-N-(2-(pyridin-2-yl)ethyl)acetamide hydrochloride] | – | 33.9 % of control | 4.1 % of control |
| CNC(=O)Cc1[nH]c(=S)n2c1[C@@H]1C[C@]1(c1cc(F)cc(Cl)c1)C2 [Example 68, 2-((5aS,6aR)-5a-(3-chloro-5-fluorophenyl)-3-thioxo-2,3,5,5a,6,6a-hexahydrocyclopropa[3,4]pyrrolo[1,2-c]imidazol-1-yl)-N-methylacetamide] | – | 55.6 % of control | 13.5 % of control |
| CN(C(=O)Cc1c2n(c(=S)n1C)C[C@@H](c1c(F)cccc1F)C2)C1COC1 [Example 448, (R)-2-(6-(2,6-difluorophenyl)-2-methyl-3-thioxo-2,5,6,7-tetrahydro-3H-pyrrolo[1,2-c]imidazol-1-yl)-N-methyl-N-(oxetan-3-yl)acetamide] | 93.3 % of control | 65.3 % of control | – |
| O=C(O)Cc1[nH]c(=S)n2c1C[C@H](c1c(F)ccc(Br)c1F)C2 [Example 13, (R)-2-(6-(3-bromo-2,6-difluorophenyl)-3-thioxo-2,5,6,7-tetrahydro-3H-pyrrolo[1,2-c]imidazol-1-yl)acetic Acid] | – | 68.0 % of control | 13.9 % of control |
| O=C(Cc1[nH]c(=S)n2c1C[C@@H](c1c(F)ccc(Br)c1F)C2)N1CCSCC1 [Example 137, (S)-2-(6-(3-bromo-2,6-difluorophenyl)-3-thioxo-2,5,6,7-tetrahydro-3H-pyrrolo[1,2-c]imidazol-1-yl)-1-thiomorpholinoethan-1-one] | 72.9 % of control | 21.5 % of control | – |
| CCOCCCc1[nH]c(=S)n2c1C[C@H](c1c(F)c(F)cc(F)c1F)C2 [Example 216, (R)-1-(3-ethoxypropyl)-6-(2,3,5,6-tetrafluorophenyl)-2,5,6,7-tetrahydro-3H-pyrrolo[1,2-c]imidazole-3-thione] | 84.5 % of control | 47.1 % of control | – |
| CN(C(=O)Cc1c2n(c(=S)n1C)C[C@@]1(c3cc(Cl)ccc3F)C[C@@H]21)C1CCOCC1 [Example 434, 2-((5aS,6aR)-5a-(5-chloro-2-fluorophenyl)-2-methyl-3-thioxo-2,3,5,5a,6,6a-hexahydrocyclopropa[3,4]pyrrolo[1,2-c]imidazol-1-yl)-N-methyl-N-(tetrahydro-2H-pyran-4-yl)acetamide] | 52.5 % of control | 8.5 % of control | – |
